Glass transition temperature data for one molecule are collected here from patent publication US20060094744A1, “Pharmaceutical dosage forms of stable amorphous rapamycin like compounds” (priority 2004, published 2006).

This data set is described as follows: Differential scanning calorimetry of amorphous sirolimus (glass transition temperature). The format is physicochemical. The conditions noted are these: DSC, TA-Instruments Q1000 MTDSC, approximately 3 mg, heating rate 2° C./min; higher Tg is said to mean a more stable amorphous material. As to the method:
In another test, the amorphous sirolimus is analyzed utilizing differential scanning calorimetry. Essentially, the purpose of this test is to determine the glass transition temperature of the amorphous sirolimus. In this test, approximately 3 mg of amorphous sirolimus is transferred into a standard aluminum TA-Instrument sample pan and covered. The DSC curve is recorded on a TA-Instruments Q1000 MTDSC equipped with a RCS cooling unit. FIG. 2 illustrates a differential scanning calorimetry curve of amorphous sirolimus.

`CO[C@H]1C[C@@H]2CC[C@@H](C)[C@@](O)(O2)C(=O)C(=O)N2CCCC[C@H]2C(=O)O[C@H]([C@H](C)C[C@@H]2CC[C@@H](O)[C@H](OC)C2)CC(=O)[C@H](C)/C=C(\C)[C@@H](O)[C@@H](OC)C(=O)[C@H](C)C[C@H](C)/C=C/C=C/C=C/1C` [amorphous sirolimus, (3S,6R,7E,9R,10R,12R,14S,15E,17E,19E,21 S,23S, 26R,27R,34aS)-9, 10, 12, 13, 14,21,22,23,24,25,26,27,32,33,34, 34a-hexadecahydro-9,27-dihydroxy-3-[(1R)-2-[(1S,3R,4R)-4-hydroxy-3-methoxycyclohexyl]-1-methylethyl]-10,21-dimethoxy-6,8,12,14,20,26-hexamethyl-23,27-epoxy-3H-pyrido[2,1-c][1,4] oxaazacyclohentriacontine-1,5,11,28,29(4H,6H,31H)-pentone]: the glass transition temperature entry is “about 93 °C”.
